The text below walks through data of ChEMBL document CHEMBL1821627, “Medicinal chemistry as a conduit for the modulation of quorum sensing” (J Med Chem, 2010).

The first assay addresses T1, Transcriptional activator protein LasR (Pseudomonas aeruginosa (strain ATCC 15692 / PAO1 / 1C / PRS 101 / LMG12228), UniProt P25084).
T1 sequence (P25084 whole entry): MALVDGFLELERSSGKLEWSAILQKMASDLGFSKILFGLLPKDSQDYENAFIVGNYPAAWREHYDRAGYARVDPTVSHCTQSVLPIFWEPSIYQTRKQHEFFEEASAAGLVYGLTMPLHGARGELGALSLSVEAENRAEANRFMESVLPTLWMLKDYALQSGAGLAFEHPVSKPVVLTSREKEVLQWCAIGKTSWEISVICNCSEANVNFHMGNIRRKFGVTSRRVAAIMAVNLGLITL
Briefly: Antagonist activity at Pseudomonas aeruginosa LasR receptor expressed in Escherichia coli in presence of 7.5 nM natural auto-inducer 3-oxo-C12-HSL. Format: functional.
The term IC50 denotes the concentration that gives 50% inhibition. `O=C(Cc1ccc(I)cc1)N[C@H]1CCOC1=O`: the IC50 stood at 1.72 µM.

Another assay addresses T1, Transcriptional activator protein LasR. The experiment in a line: Agonist activity at Pseudomonas aeruginosa LasR cognate receptor expressed in Escherichia coli harboring pKDT17 assessed as activation of lasB expression by LacZ reporter gene assay. Type of assay: functional.
By EC50 is commonly meant the concentration at which the effect is half-maximal. On to `CCCCCCCCCCCC(=O)N[C@H]1CCOC1=O`, for which the half-maximal effective concentration (EC50) was determined as 0.033 µM. Consider `CCCCCCCCCC(O)CC(=O)N[C@H]1CCOC1=O` (stereo partly specified), for which the EC50 worked out at 0.054 µM.

With `CCCCCCCCCC(=O)CC(=O)N[C@H]1CCSC1=O`, the EC50 is 0.007 µM. In the case of `CCCCCCCC(=O)CC(=O)N[C@H]1CCOC1=O`, the EC50 is 0.015 µM. `CCCCC/C=C/CCC(=O)CC(=O)N[C@H]1CCOC1=O`: the EC50 is 0.01 µM.

Test system in the next assay: not listed separately
Briefly: Inhibition of autoinducer-stimulated quorum sensing regulated bioluminescence in Vibrio fischeri by luminescence assay. The arrangement: species or system Aliivibrio fischeri.
`CCCC(=O)CC(=O)N[C@H]1CCSC1=O` gave an IC50 of 0.131 µM. In turn, `CCCCCCCCC(=O)N[C@H]1CCOC1=O` yielded an IC50 of 0.0124 µM.

Molecular target in a further assay: not listed separately
Briefly: Inhibition of quorum sensing Salmonella Typhimurium by beta-galactosidase transcription assay in presence of 50 uM DPD. The arrangement: species or system Salmonella enterica subsp. enterica serovar Typhimurium.
In the case of `O=C(CCc1ccccc1)C(=O)[C@@H](O)CO`, the IC50 is greater than 50 µM. On to `[N-]=[N+]=NCCCCC(=O)C(=O)[C@@H](O)CO`, for which the IC50 is 20.3 µM. Regarding `CCCCCCC(=O)C(=O)[C@@H](O)CO`, the IC50 was 24.9 µM. For `CCC(=O)C(=O)[C@@H](O)CO`, the IC50 was greater than 50 µM.

Test system in a further assay: not listed separately
The experiment in a line: Inhibition of quorum sensing regulated bioluminescence in Vibrio harveyi.
For `CCOC(=S)CS(=O)(=O)c1ccc(-c2ccccc2)cc1`, half-maximal inhibition (IC50) was put at 5.7 µM. For `CCOC(=S)CS(=O)(=O)c1cccs1`, the 50% inhibitory concentration (IC50) worked out at 22 µM. `CCN(CC)C(=S)CS(=O)(=O)c1cccs1` had a concentration for half-maximal inhibition (IC50) of 138 µM.

`O=C(c1ccccc1)c1ccc(O)c(O)c1O` displayed an IC50 of 4 µM. Still for that read-out and setting: under `O=c1ccc2ccc(O)c(O)c2o1` [DAPHNETIN] stands 12 µM; under `Cc1ccc(B(O)O)cc1F`, 9 µM. `OB(O)c1ccc(OCc2ccccc2)cc1` displayed an IC50 of 4 µM. In turn, `Oc1ccccc1O` [CATECHOL] yielded an IC50 of 59 µM.

In the case of `NC(=S)CS(=O)(=O)c1ccccn1`, inhibition was half-maximal at 35 µM (IC50). With `CCOC(=O)CS(=O)(=O)c1ccc(-c2ccc3c(c2)OCCO3)cc1`, the IC50 was 158 µM. Still for that read-out and setting: under `O=Cc1ccc(O)c(O)c1O` stands 4 µM; under `COC(=O)c1ccc(B(O)O)cc1`, 5 µM; under `Cc1ccc(B(O)O)c(F)c1`, 4 µM. `N#Cc1ccc(B(O)O)cc1`: the IC50 was found to be 6 µM. For the molecule `NC(=S)CS(=O)(=O)c1cccs1`, the IC50 was found to be 35 µM. `NC(=O)CS(=O)(=O)c1cccs1` gave an IC50 greater than 400 µM. For the molecule `CCOC(=O)CS(=O)(=O)c1ccc(-c2cncc3ccccc23)cc1`, the IC50 was greater than 400 µM. Regarding `Oc1cccc(O)c1O` [PYROGALLOL], the IC50 came out at 2 µM. Still for that read-out and setting: the result for `CCOC(=O)CS(=O)(=O)c1ccc(-c2ccccc2)cc1` reads 8.7 µM.
